Experimental data reported in paper PMC10350928 (Journal of Medicinal Chemistry, 2023).

What was measured:
Log D shake-flask method = conditions: octanol/water, pH 7.4, logD, Table 1, octanol and water at pH7.4
WT c-MET [1] = biological target: T1, WT c-MET (Homo sapiens, UniProt P08581); format: binding; conditions: Table 1; LLE = pKd – log D
Rat hepatocytes = assay: Rat hepatocyte Clint; conditions: for RH: rat hepatocytes
Human hepatocytes = assay: Human hepatocyte Clint; conditions: Table 4
[2] = Rat plasma pharmacokinetics; conditions: male, Han Wistar, iv, 0.5 mg/kg
WT c-MET [3] = biological target: T1, WT c-MET; format: biochemical; conditions: Table 3; LLE = pIC50 – log D
P-gp (MDR1) = assay: MDR1-MDCK permeability and efflux; conditions: dog

T1 sequence (P08581 25-1390): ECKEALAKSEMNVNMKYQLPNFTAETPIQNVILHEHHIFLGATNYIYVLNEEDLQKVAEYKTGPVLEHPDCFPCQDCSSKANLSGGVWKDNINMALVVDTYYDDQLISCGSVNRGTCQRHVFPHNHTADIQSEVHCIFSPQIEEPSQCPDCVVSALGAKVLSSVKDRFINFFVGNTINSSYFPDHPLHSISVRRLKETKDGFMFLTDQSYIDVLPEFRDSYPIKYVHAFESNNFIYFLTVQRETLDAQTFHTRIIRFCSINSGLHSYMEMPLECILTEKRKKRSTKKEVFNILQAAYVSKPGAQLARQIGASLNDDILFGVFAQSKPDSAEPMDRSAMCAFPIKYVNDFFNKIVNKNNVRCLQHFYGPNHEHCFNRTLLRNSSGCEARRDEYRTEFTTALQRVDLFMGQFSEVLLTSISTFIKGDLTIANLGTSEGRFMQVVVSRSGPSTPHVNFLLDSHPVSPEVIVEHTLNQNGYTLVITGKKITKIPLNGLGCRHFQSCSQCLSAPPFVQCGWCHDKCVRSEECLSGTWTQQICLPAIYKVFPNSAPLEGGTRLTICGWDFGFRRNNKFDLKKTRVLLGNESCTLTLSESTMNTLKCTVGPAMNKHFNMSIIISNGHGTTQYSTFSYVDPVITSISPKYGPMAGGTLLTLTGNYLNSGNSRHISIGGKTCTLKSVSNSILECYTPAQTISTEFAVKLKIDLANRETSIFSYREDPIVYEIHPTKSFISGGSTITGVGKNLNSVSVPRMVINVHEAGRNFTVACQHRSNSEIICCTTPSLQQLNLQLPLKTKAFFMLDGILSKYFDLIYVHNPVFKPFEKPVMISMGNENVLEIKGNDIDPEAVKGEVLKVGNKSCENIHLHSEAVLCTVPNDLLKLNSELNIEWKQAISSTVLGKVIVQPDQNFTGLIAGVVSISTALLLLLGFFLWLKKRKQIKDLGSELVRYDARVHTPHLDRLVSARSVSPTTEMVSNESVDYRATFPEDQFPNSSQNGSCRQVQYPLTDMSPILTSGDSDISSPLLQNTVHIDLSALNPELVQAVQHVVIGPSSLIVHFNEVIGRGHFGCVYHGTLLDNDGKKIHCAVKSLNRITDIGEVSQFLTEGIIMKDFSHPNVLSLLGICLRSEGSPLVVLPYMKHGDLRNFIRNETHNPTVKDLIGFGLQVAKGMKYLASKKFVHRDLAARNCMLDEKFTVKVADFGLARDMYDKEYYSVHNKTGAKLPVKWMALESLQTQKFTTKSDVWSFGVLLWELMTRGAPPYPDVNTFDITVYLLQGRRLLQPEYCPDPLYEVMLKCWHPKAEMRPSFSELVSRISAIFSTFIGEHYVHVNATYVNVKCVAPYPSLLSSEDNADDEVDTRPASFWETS

With `CC(c1ccc(F)cc1)n1cc(-c2cc(F)cc(F)c2)c(=O)[nH]c1=O` (stereo not drawn) [Compound 6, 5-(3,5-Difluorophenyl)-1-(1-(4-fluorophenyl)ethyl)pyrimidine-2,4(1H,3H)-dione] the logD (Log D shake-flask method) was 3.3, the “SPR assay LLE WT” value (WT c-MET [1]) was 2.6 and the RH (Rat hepatocytes; Table 1) was 26.8 μL/min/10^6 cells.
With `C[C@@H](c1ccc(F)cc1)n1cc(-c2cc(F)cc3cn[nH]c23)c(=O)[nH]c1=O` [Compound 27, (S)-5-(5-Fluoro-1H-indazol-7-yl)-1-(1-(4-fluorophenyl)ethyl)pyrimidine-2,4(1H,3H)-dione] the “Hepatocytes Human” value (Human hepatocytes) was 1.81 μL/min/10^6 cells, the clearance [2] was 74 mL/min/kg and the “ADP-Glo assay LLE WT” value (WT c-MET [3]) was 4.1. The efflux ratio at 2 h, 10 μM (P-gp (MDR1)) was under 7, the RH (Rat hepatocytes; Table 3) was 14.8 μL/min/10^6 cells and the “Hepatocytes Rat” value (Rat hepatocytes; Table 4) was 14.8 μL/min/10^6 cells.
